# Results from patent US20240049707A1, “PESTICIDE COMPOSITIONS OF LICOCHALCONE C” (METABOLIC INSIGHTS LTD., priority 2020, published 2024).
# Test system: Rhizoctonia solani
# Assay: Microplate based assay of bioactivity against Rhizoctonia solani
# Assay type: cell-based
# Settings: 10 μl of 250 ppm solution + 40 μl inoculum, activity grade x repeats x days of activity/252 x 100
# Method: Diluted in DMSO Licochalcone C was added to microplate wells and mixed with 50 μl of hyphae suspension and growth of the fungus, starting from blended hyphae, was monitored by plate reader and visual inspection. Inoculum Preparation of Rhizoctonia solani Hyphae: The concentration of the suspension should be 4×10^4 CFU/ml (diluted 10-fold concentration should be 4000 CFU/ml). Dilute the inoculum stock 1:20 in PDBC—1 ml in 20 ml, or calculate the dilution needed, to prepare final concentration of 2000 CFU/ml. The amount in each well should be about 100 CFU. […] Screening of Plates: • 1) Screen plate at […]: 3d, 7d, 14d and 21d following the assay start • 2) Calculate the difference of absorbance between each screen and the read at zero time • 3) Calculate the percentage of growth inhibition of each well at each time point. […]
compound,measurement,value
"COc1c(/C=C/C(=O)c2ccc(O)cc2)ccc(O)c1CC=C(C)C [Licochalcone C, (E)-3-[4-hydroxy-2-methoxy-3-(3-methylbut-2-enyl)phenyl]-1-(4-hydroxyphenyl)prop-2-en-1-one]",Relative Activity value (%),100%
